Results on four compounds are retold here after ChEMBL document CHEMBL1156106 (J Med Chem, 2009).

Test [1] concerns the target Sodium-dependent serotonin transporter (Homo sapiens, UniProt P31645). Nature of the test: biochemical. The format is cell-based, HEK293.
For test [2], the system named is Mus musculus. Kind of test: Antidepressant activity in ip dosed mouse assessed as stimulation of locomotor activity. Type of test: functional.
Test [3] relates to Mus musculus. Nature of the test: Antidepressant activity in ip dosed mouse assessed as stimulation of locomotor activity relative to cocaine. The format is functional.
The test system of test [4] is Mus musculus. Kind of test: Antidepressant activity in ip dosed mouse assessed as time to reach peak stimulation of locomotor activity. The format is functional.
Test [5] has as its system Mus musculus. Kind of test: Antidepressant activity in ip dosed mouse assessed as duration of locomotor activity. The format is functional.
In test [6] the test system is Rattus norvegicus. Kind of test: Effect on behavioural activity in rat assessed as cocaine-induced lever response at 25 mg/kg, ip pretreated with cocaine for 45 mins by drug-discrimination studies. The following applies: route intraperitoneal. Type of test: functional.
The test system of test [7] is Rattus norvegicus. Nature of the test: Effect on behavioural activity in rat assessed as cocaine-induced lever response at 50 mg/kg, ip pretreated with cocaine for 45 mins by drug-discrimination studies. The following applies: route intraperitoneal. Type of test: functional.
Test [8] deals with Rattus norvegicus. Nature of the test: Effect on behavioural activity in rat assessed as cocaine-induced lever response at 10 mg/kg, ip pretreated with cocaine for 75 mins by drug-discrimination studies. Type of test: functional. The settings on record: route intraperitoneal.
Test [9] has as its system Rattus norvegicus. Kind of test: Effect on behavioural activity in rat assessed as cocaine-induced lever response at 25 mg/kg, ip pretreated with cocaine for 75 mins by drug-discrimination studies. The following applies: route intraperitoneal. The format is functional.
Test [10] deals with Rattus norvegicus. Kind of test: Effect on behavioural activity in rat assessed as cocaine-induced lever response at 50 mg/kg, ip pretreated with cocaine for 75 mins by drug-discrimination studies. Type of test: functional. The following applies: route intraperitoneal.
The test system of test [11] is Rattus norvegicus. Nature of the test: Effect on behavioural activity in rat assessed as cocaine-induced lever response at 100 mg/kg, ip pretreated with cocaine for 75 mins by drug-discrimination studies. The format is functional. The following applies: route intraperitoneal.
The test system of test [12] is Rattus norvegicus. Nature of the test: Effect on behavioural activity in rat assessed as cocaine-induced lever response at 10 mg/kg, po pretreated with cocaine for 45 mins by drug-discrimination studies. Type of test: functional.
The test system of test [13] is Rattus norvegicus. Kind of test: Effect on behavioural activity in rat assessed as cocaine-induced lever response at 10 mg/kg, po pretreated with cocaine for 90 mins by drug-discrimination studies. The format is functional.
The test system of test [14] is Rattus norvegicus. Kind of test: Effect on behavioural activity in rat assessed as cocaine-induced lever response at 10 mg/kg, po pretreated with cocaine for 180 mins by drug-discrimination studies. The format is functional.
Test [15] relates to Rattus norvegicus. Kind of test: Effect on behavioural activity in rat assessed as cocaine-induced lever response at 25 mg/kg, po pretreated with cocaine for 45 mins by drug-discrimination studies. Type of test: functional.
The test system of test [16] is Rattus norvegicus. Nature of the test: Effect on behavioural activity in rat assessed as cocaine-induced lever response at 25 mg/kg, po pretreated with cocaine for 90 mins by drug-discrimination studies. The format is functional.
The subject of test [17] is Rattus norvegicus. Nature of the test: Effect on behavioural activity in rat assessed as cocaine-induced lever response at 25 mg/kg, po pretreated with cocaine for 180 mins by drug-discrimination studies. Type of test: functional.
Test [18] deals with Rattus norvegicus. Nature of the test: Effect on behavioural activity in rat assessed as cocaine-induced lever response at 25 mg/kg, po pretreated with cocaine for 360 mins by drug-discrimination studies. Type of test: functional.
Test [19] concerns Rattus norvegicus. Nature of the test: Effect on behavioural activity in rat assessed as cocaine-induced lever response at 50 mg/kg, po pretreated with cocaine for 45 mins by drug-discrimination studies. The format is functional.
Test [20] concerns Rattus norvegicus. Nature of the test: Effect on behavioural activity in rat assessed as cocaine-induced lever response at 50 mg/kg, po pretreated with cocaine for 90 mins by drug-discrimination studies. The format is functional.
The test system of test [21] is Rattus norvegicus. Kind of test: Effect on behavioural activity in rat assessed as cocaine-induced lever response at 50 mg/kg, po pretreated with cocaine for 180 mins by drug-discrimination studies. The format is functional.
The subject of test [22] is Rattus norvegicus. Kind of test: Effect on behavioural activity in rat assessed as cocaine-induced lever response at 50 mg/kg, po pretreated with cocaine for 360 mins by drug-discrimination studies. Type of test: functional.
Test [23] deals with Rattus norvegicus. Kind of test: Effect on behavioural activity in po dosed rat assessed as cocaine-induced lever response pretreated with cocaine by drug-discrimination studies. Type of test: functional.
The test system of test [24] is Rattus norvegicus. Kind of test: Effect on behavioural activity in rat assessed as cocaine-induced lever response at 50 mg/kg, ip pretreated with cocaine for 50 mins by drug-discrimination studies. Type of test: functional. The settings on record: route intraperitoneal.
For test [25], the system named is Rattus norvegicus. Nature of the test: Effect on behavioural activity in rat assessed as cocaine-induced lever response at 100 mg/kg, ip pretreated with cocaine for 50 mins by drug-discrimination studies. The format is functional. The following applies: route intraperitoneal.
Test [26] deals with Sodium-dependent noradrenaline transporter (Homo sapiens, UniProt P23975). Kind of test: Displacement of [125I]RTI55 from cloned human NET expressed in HEK293 cells. Type of test: cell-based.
Test [27] has as its system Rattus norvegicus. Nature of the test: Effect on behavioural activity in rat assessed as cocaine-induced lever response at 10 mg/kg, ip pretreated with cocaine for 80 mins by drug-discrimination studies. Type of test: functional. The settings on record: route intraperitoneal.
Test [28] relates to Rattus norvegicus. Kind of test: Effect on behavioural activity in rat assessed as cocaine-induced lever response at 25 mg/kg, ip pretreated with cocaine for 80 mins by drug-discrimination studies. The format is functional. The settings on record: route intraperitoneal.
Test [29] deals with Rattus norvegicus. Nature of the test: Effect on behavioural activity in rat assessed as cocaine-induced lever response at 50 mg/kg, ip pretreated with cocaine for 80 mins by drug-discrimination studies. The format is functional. The settings on record: route intraperitoneal.
Test [30] deals with Rattus norvegicus. Kind of test: Effect on behavioural activity in rat assessed as cocaine-induced lever response at 100 mg/kg, ip pretreated with cocaine for 80 mins by drug-discrimination studies. Type of test: functional. The following applies: route intraperitoneal.

Sodium-dependent serotonin transporter, sequence (P31645 whole entry): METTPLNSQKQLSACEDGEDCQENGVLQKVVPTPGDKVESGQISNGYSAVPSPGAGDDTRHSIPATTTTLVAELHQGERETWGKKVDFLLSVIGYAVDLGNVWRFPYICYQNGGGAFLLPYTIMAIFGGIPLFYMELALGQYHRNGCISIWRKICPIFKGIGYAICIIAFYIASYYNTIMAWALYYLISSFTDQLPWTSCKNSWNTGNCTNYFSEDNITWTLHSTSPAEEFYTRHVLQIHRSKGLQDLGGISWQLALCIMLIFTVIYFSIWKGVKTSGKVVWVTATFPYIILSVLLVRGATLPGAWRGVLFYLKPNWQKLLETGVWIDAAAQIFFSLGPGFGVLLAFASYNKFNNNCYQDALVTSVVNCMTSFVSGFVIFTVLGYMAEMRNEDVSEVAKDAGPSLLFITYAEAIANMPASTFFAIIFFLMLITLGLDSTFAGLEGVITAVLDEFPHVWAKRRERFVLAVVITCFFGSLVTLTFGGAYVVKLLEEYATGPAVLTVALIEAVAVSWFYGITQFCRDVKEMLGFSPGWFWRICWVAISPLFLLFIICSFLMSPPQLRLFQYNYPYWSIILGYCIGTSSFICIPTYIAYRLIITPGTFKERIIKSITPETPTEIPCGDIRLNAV
Sodium-dependent noradrenaline transporter, sequence (P23975 whole entry): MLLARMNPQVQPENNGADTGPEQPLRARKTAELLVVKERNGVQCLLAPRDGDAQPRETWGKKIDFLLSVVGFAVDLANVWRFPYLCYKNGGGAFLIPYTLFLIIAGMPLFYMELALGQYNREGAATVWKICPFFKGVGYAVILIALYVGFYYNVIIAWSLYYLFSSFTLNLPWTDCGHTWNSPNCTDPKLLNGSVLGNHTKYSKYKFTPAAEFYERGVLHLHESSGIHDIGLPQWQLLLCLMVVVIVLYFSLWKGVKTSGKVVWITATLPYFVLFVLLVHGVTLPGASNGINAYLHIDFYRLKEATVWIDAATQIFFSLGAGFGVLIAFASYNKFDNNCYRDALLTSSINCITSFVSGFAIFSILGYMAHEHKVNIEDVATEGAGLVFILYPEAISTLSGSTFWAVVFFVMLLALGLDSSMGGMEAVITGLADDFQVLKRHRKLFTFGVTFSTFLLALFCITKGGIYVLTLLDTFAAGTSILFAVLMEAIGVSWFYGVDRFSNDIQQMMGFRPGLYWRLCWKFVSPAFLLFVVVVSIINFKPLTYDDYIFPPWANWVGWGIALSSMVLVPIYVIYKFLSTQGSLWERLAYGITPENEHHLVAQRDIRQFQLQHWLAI

For the compound `CCCCCC(NC(C)(C)C)C(=O)c1cccc(Cl)c1` (stereo not drawn), the Ki in [1] is more than 10 µM. Besides, the ED50 in the test on Mus musculus [2] worked out at 12.9 mg/kg. Further, the results for the Activity with Mus musculus [3], in the test with Rattus norvegicus [6] and in the test with Rattus norvegicus [7] were 90%, 1% and 50.9%, respectively. Besides, the “Time to peak locomotor stimulation” value with Mus musculus [4] worked out at 60 min. Besides, the Time in the test with Mus musculus [5] came to 280 min.
As for `CCCCCCC(NC(C)(C)C)C(=O)c1cccc(Cl)c1` (stereo not drawn), the Activity in the test with Rattus norvegicus [8] is 0%; with Rattus norvegicus [9], 48.5%; with Rattus norvegicus [10], 49.9%; in the test with Rattus norvegicus [11], 67.2%; in the test with Rattus norvegicus [12], 0%; in the test on Rattus norvegicus [13], 0%. Moreover, the Activity in the test on Rattus norvegicus [14] was 0%; in the test with Rattus norvegicus [15], 0%; with Rattus norvegicus [16] it was 0%; in the test with Rattus norvegicus [17] it was 0%; in the test with Rattus norvegicus [18], 0%; in the test on Rattus norvegicus [19], 83%. Further, the Activity in the test on Rattus norvegicus [20] is 17%; with Rattus norvegicus [21], 25%; in the test with Rattus norvegicus [22] it was 0%; in the test on Mus musculus [3], 94%. This compound came in with a Ki in test [1] of more than 10 µM. In addition, the ED50 with Mus musculus [2] turned out to be 5.6 mg/kg; in the test on Rattus norvegicus [23], 46.9 mg/kg. Also, the “Time to peak locomotor stimulation” value with Mus musculus [4] is 110 min. In the test on Mus musculus [5], the Time came to 130 min.
Take `Cc1cc(C(=O)C(C)NC(C)(C)C)ccc1Br` (stereo not drawn): the figures for the Activity with Rattus norvegicus [24], in the test on Rattus norvegicus [25] and in the test with Mus musculus [3] were 16.7%, 66.9% and 36%, respectively. For the same compound, the ED50 with Mus musculus [2] came to 12.6 mg/kg. In the test with Mus musculus [4], the “Time to peak locomotor stimulation” value stood at 50 min. In the test with Mus musculus [5], the Time worked out at 240 min.
Compound `CC(NC(C)(C)C)C(=O)c1ccc(Br)cc1` (stereo not drawn) gave a Ki in test [26] of more than 10 µM. In the test with Mus musculus [2], the ED50 was determined as 29.5 mg/kg. The Activity is given as 54% with Mus musculus [3]; 1.7% in the test with Rattus norvegicus [27]; 16.7% in the test with Rattus norvegicus [28]; 20% with Rattus norvegicus [29]; 0.5% in the test on Rattus norvegicus [30]. In the test with Mus musculus [4], the “Time to peak locomotor stimulation” value is 140 min. The Time in the test with Mus musculus [5] turned out to be 160 min.
